Results as given in PMC9403976, “Elucidating the path to Plasmodium prolyl-tRNA synthetase inhibitors that overcome halofuginone resistance” (Nature Communications, 2022).
“And” between values parts separate entries of the source, which are not always exact repeats. Identical values can stand only once. Like-named read-outs stand apart in the source and are kept apart here. Marks after values point to notes of the source that are not given here.

Experiments:
[1] = system: P. falciparum Dd2-2D4; assay: P. falciparum asexual blood stage (ABS) growth assay, SYBR Green, 72 h, wild-type parasites; type: cell-based, Plasmodium falciparum; details: for EC50: Plasmodium falciparum
[2] = system: halofuginone-induced P. falciparum (elevated proline homeostasis); assay: P. falciparum ABS growth assay, SYBR Green, 72 h, halofuginone-induced parasites; type: cell-based, Plasmodium falciparum; details: for EC50: Plasmodium falciparum, DD2
From the text: (§1) Parasites were maintained under standard culture conditions as described previously[56],[57]. […] The P. falciparum Dd2 cell lines used in this study (Dd2-2D4, halofuginone-induced, and HFGR-I) have previously undergone whole genome sequencing in our labs. They were also routinely assayed and EC50 values determined using the ABS growth assay (see below) with a panel of standard antimalarial compounds, including halofuginone which has differential activity for the three Dd2 lines used in these experiments. Data were cross-referenced for consistency with literature reported values and data previously acquired in the lab.
(§2) This assay was performed as previously described. In short, P. falciparum erythrocytic-stage parasites at 1% parasitemia and 1% hematocrit in RPMI + 0.5% Albumax were seeded at 40 μL/well in 384-well plates with test compounds in triplicate, dose-response format with 10 μM dihydroartemisinin as a kill-control and blank (no compound) wells as a growth-control. […] After 72 h, growth was quantified by measuring fluorescence (Molecular Devices SpectraMax iD5) following SYBR Green 1 staining. Data were analyzed in Excel and plotted in PRISM (V. 8.4.3–9.1.0, GraphPad).

[3] = system: HFGR-I P. falciparum (elevated proline homeostasis and PfcProRS^L482H); assay: P. falciparum ABS growth assay, SYBR Green, 72 h, HFGR-I parasites; type: cell-based, Plasmodium falciparum; details: for EC50: Plasmodium falciparum, DD2
From the text: as §1, §2

[4] = biological target: T1, PfcProRS (Plasmodium falciparum, UniProt Q8I5R7); type: binding; details: for Normalized response, dose-response replicates (SI Fig 14): replicates 1-3
T1 construct: made in house; host or cells: E. coli SoluBL-21
T1 sequence (Q8I5R7 249-746): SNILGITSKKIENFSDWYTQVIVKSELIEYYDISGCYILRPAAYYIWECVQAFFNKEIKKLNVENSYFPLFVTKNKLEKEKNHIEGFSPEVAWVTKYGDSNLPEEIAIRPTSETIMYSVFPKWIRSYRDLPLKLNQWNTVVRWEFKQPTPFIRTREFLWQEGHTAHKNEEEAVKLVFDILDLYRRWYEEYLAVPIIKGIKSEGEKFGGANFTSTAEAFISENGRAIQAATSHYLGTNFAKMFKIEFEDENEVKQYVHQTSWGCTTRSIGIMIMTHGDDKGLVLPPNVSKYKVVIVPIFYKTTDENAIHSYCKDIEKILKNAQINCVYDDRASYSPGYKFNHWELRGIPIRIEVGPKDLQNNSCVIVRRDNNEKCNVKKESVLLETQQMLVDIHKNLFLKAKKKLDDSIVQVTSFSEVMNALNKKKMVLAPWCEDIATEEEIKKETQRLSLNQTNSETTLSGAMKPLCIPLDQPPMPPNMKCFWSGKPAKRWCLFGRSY

[5] = biological target: HsProRS (Homo sapiens, UniProt P07814); assay: TR-FRET ligand displacement assay with tracer MAT379 (CoraFluor-1-Halo and anti-His6 antibody formats); type: binding; set-up: made in house; host or cells: E. coli SoluBL-21; details: for normalized TR-FRET signal (dose-response replicates): SI Fig 15, listed as Glyburide (28)
HsProRS, sequence (P07814 996-1512): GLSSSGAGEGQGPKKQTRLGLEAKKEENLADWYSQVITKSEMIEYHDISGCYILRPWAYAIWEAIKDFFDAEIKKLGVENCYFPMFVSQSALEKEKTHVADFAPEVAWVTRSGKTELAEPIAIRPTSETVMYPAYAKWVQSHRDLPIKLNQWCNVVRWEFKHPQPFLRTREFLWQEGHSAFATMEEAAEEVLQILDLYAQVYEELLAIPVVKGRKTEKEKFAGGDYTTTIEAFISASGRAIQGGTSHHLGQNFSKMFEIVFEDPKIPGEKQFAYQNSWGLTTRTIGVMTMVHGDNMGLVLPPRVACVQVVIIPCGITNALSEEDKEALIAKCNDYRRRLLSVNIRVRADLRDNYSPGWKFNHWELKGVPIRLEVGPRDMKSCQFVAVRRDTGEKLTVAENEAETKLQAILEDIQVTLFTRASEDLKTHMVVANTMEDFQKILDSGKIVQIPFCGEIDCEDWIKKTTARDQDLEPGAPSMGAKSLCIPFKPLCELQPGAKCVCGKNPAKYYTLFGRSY

[6] = HsProRS (KD [nM]) + proline, 100 μM proline, 250 nM MAT379
[7] = HsProRS (KD [nM]) −, absence of substrates, 250 nM MAT379
[8] = 10 μM, compound had <50% inhibition

Compound: COc1ccc(Cl)cc1C(=O)NCCc1ccc(S(=O)(=O)NC(=O)NC2CCCCC2)cc1 [Glyburide, reference compound]
- EC50 ([1]; DD2, SI Fig 16b, values on -log scale, read-out: ABS - Dd2-2D4 (converted)): 75700 nM
- EC50 ([1]; wild-type Dd2-2D4 ABS parasites, 72 h, read-out: Dd2 (EC50 [nM]) wt): 75600 nM
- EC50 ([2]; halofuginone-induced ABS parasites, 72 h, read-out: Dd2 (EC50 [nM]) Halofuginone-induced): 73600 nM
- EC50 ([3]; HFGR-I ABS parasites, 72 h, read-out: Dd2 (EC50 [nM]) HFGR-I): 69600 nM
- binding mode with respect to substrates (ATP, proline) [4]: ATP- and proline-competitive
- selectivity for PfcProRS over HsProRS [4]: > 30 fold
- Normalized response, dose-response replicates (SI Fig 14) ([4]; Log[inhibitor] (M) -4.000, listed as Glyburide (28)): 9.02E-01 and 9.90E-01 and 8.86E-01
- Normalized response, dose-response replicates (SI Fig 14) ([4]; Log[inhibitor] (M) -4.301, listed as Glyburide (28)): 1.05E+00 and 1.04E+00 and 1.16E+00
- Normalized response, dose-response replicates (SI Fig 14) ([4]; Log[inhibitor] (M) -4.601, listed as Glyburide (28)): 1.10E+00 and 1.11E+00 and 1.09E+00
- Normalized response, dose-response replicates (SI Fig 14) ([4]; Log[inhibitor] (M) -4.904, listed as Glyburide (28)): 1.18E+00 and 1.08E+00 and 1.07E+00
- Normalized response, dose-response replicates (SI Fig 14) ([4]; Log[inhibitor] (M) -5.208, listed as Glyburide (28)): 9.30E-01 and 1.21E+00 and 1.10E+00
- Normalized response, dose-response replicates (SI Fig 14) ([4]; Log[inhibitor] (M) -5.509, listed as Glyburide (28)): 1.06E+00 and 9.98E-01 and 1.05E+00
- Normalized response, dose-response replicates (SI Fig 14) ([4]; Log[inhibitor] (M) -5.796, listed as Glyburide (28)): 9.95E-01 and 9.65E-01 and 1.02E+00
- Normalized response, dose-response replicates (SI Fig 14) ([4]; Log[inhibitor] (M) -6.108, listed as Glyburide (28)): 9.29E-01 and 8.37E-01 and 1.06E+00
- Normalized response, dose-response replicates (SI Fig 14) ([4]; Log[inhibitor] (M) -6.409, listed as Glyburide (28)): 9.49E-01 and 9.10E-01 and 8.70E-01
- Normalized response, dose-response replicates (SI Fig 14) ([4]; Log[inhibitor] (M) -6.710, listed as Glyburide (28)): 9.85E-01 and 9.81E-01 and 9.34E-01
- Normalized response, dose-response replicates (SI Fig 14) ([4]; Log[inhibitor] (M) -7.000, listed as Glyburide (28)): 1.05E+00 (2×) and 1.07E+00
- Normalized response, dose-response replicates (SI Fig 14) ([4]; Log[inhibitor] (M) -7.301, listed as Glyburide (28)): 1.02E+00 and 9.36E-01 and 1.04E+00
- Normalized response, dose-response replicates (SI Fig 14) ([4]; Log[inhibitor] (M) -7.602, listed as Glyburide (28)): 8.75E-01 and 9.05E-01 and 1.01E+00
- Normalized response, dose-response replicates (SI Fig 14) ([4]; Log[inhibitor] (M) -8.000, listed as Glyburide (28)): 1.03E+00 and 1.08E+00 and 9.17E-01
- Normalized response, dose-response replicates (SI Fig 14) ([4]; Log[inhibitor] (M) -8.301, listed as Glyburide (28)): 1.03E+00 and 8.92E-01 and 1.05E+00
- HsProRS % signal at 100 μM, + 100 μM proline ([5]; + 100 μM proline, 100 μM): 92.6%
- Kd ([5]; HsProRS (KD [nM]) + ATP, 500 μM ATP, 250 nM MAT379): 30900 nM
- Kd [5, 6]: > 50000 nM
- Kd [5, 7]: 73900 nM
- Kd ([5]; HsProRS KD + 100 μM proline, bound, + 100 μM proline, bound given in μM): > 50900 nM
- normalized TR-FRET signal (dose-response replicates) ([5]; Log[inhibitor] (M) -3.99976): 4.60E-01 and 4.45E-01 and 5.24E-01
- normalized TR-FRET signal (dose-response replicates) ([5]; Log[inhibitor] (M) -4.3009): 6.36E-01 and 5.89E-01 and 6.44E-01
- normalized TR-FRET signal (dose-response replicates) ([5]; Log[inhibitor] (M) -4.60199): 8.28E-01 and 7.19E-01 and 8.15E-01
- normalized TR-FRET signal (dose-response replicates) ([5]; Log[inhibitor] (M) -4.90248): 9.22E-01 and 9.13E-01 and 9.32E-01
- normalized TR-FRET signal (dose-response replicates) ([5]; Log[inhibitor] (M) -5.20323): 1.00E+00 and 9.33E-01 (2×)
- normalized TR-FRET signal (dose-response replicates) ([5]; Log[inhibitor] (M) -5.51347): 9.75E-01 (2×) and 1.00E+00
- normalized TR-FRET signal (dose-response replicates) ([5]; Log[inhibitor] (M) -5.79595): 7.95E-01 and 8.60E-01 and 9.98E-01
- normalized TR-FRET signal (dose-response replicates) ([5]; Log[inhibitor] (M) -6.10794): 8.65E-01 and 8.44E-01 and 8.55E-01
- normalized TR-FRET signal (dose-response replicates) ([5]; Log[inhibitor] (M) -6.40526): 9.62E-01 and 9.85E-01 and 1.00E+00
- normalized TR-FRET signal (dose-response replicates) ([5]; Log[inhibitor] (M) -6.7137): 9.69E-01 and 9.06E-01 and 9.96E-01
- normalized TR-FRET signal (dose-response replicates) ([5]; Log[inhibitor] (M) -7): 8.09E-01 and 8.06E-01 and 9.15E-01
- normalized TR-FRET signal (dose-response replicates) ([5]; Log[inhibitor] (M) -7.331): 8.96E-01 and 8.92E-01 and 9.69E-01
- normalized TR-FRET signal (dose-response replicates) ([5]; Log[inhibitor] (M) -7.57403): 9.06E-01 and 7.74E-01 and 8.73E-01
- normalized TR-FRET signal (dose-response replicates) ([5]; Log[inhibitor] (M) -7.87506): 6.90E-01 and 8.76E-01 and 8.40E-01
- normalized TR-FRET signal (dose-response replicates) ([5]; Log[inhibitor] (M) -8.17609): 9.01E-01 and 9.35E-01 and 9.12E-01

Compound: O=C(NC1Cc2ccccc2C1)c1nccnc1NC(=O)N1CCC(NC(=O)[C@@H]2CCCN2)CC1 [MAT334]
- percent growth at 10 μM, Dd2 wt [1, 8]: 76%^b
- EC50 ([1]; wildtype (Dd2-2D4), bound given in μM, read-out: Dd2 EC50 wildtype (Dd2-2D4), bound): > 10000 nM
- % signal at 10 μM, wildtype (Dd2-2D4) ([1]; wildtype (Dd2-2D4), 10 μM): 75.7%
- percent growth at 10 μM, Dd2 Halofuginone-induced [2, 8]: 59%^b
- EC50 ([2]; halofuginone-induced, bound given in μM, read-out: Dd2 EC50 halofuginone-induced, bound): > 10000 nM
- % signal at 10 μM, halofuginone-induced ([2]; halofuginone-induced, 10 μM): 58.7%
- fold decreased activity in halofuginone-induced and HFGR-I parasites ([2]; vs wild-type Dd2-2D4): 20-to-40 fold
- percent growth at 10 μM, Dd2 HFGR-I [3, 8]: 66%^b
- % signal at 10 μM, HFGR1 ([3]; HFGR1, 10 μM): 66.0%
- EC50 ([3]; HFGR1, bound given in μM, read-out: Dd2 EC50 HFGR1, bound): > 10000 nM
- Normalized response, dose-response replicates (SI Fig 14) ([4]; Log[inhibitor] (M) -5.000, listed as MAT334 (29)): 2.08E-01 and 3.63E-01 and 3.19E-01
- Normalized response, dose-response replicates (SI Fig 14) ([4]; Log[inhibitor] (M) -5.301, listed as MAT334 (29)): 5.18E-01 and 3.74E-01 and 4.21E-01
- Normalized response, dose-response replicates (SI Fig 14) ([4]; Log[inhibitor] (M) -5.601, listed as MAT334 (29)): 6.67E-01 and 7.40E-01 and 6.08E-01
- Normalized response, dose-response replicates (SI Fig 14) ([4]; Log[inhibitor] (M) -5.904, listed as MAT334 (29)): 7.68E-01 and 7.75E-01 and 6.45E-01
- Normalized response, dose-response replicates (SI Fig 14) ([4]; Log[inhibitor] (M) -6.208, listed as MAT334 (29)): 8.81E-01 and 8.94E-01 and 8.19E-01
- Normalized response, dose-response replicates (SI Fig 14) ([4]; Log[inhibitor] (M) -6.509, listed as MAT334 (29)): 8.78E-01 and 9.77E-01 and 9.06E-01
- Normalized response, dose-response replicates (SI Fig 14) ([4]; Log[inhibitor] (M) -6.796, listed as MAT334 (29)): 9.44E-01 and 9.68E-01 and 8.61E-01
- Normalized response, dose-response replicates (SI Fig 14) ([4]; Log[inhibitor] (M) -7.108, listed as MAT334 (29)): 1.02E+00 and 1.01E+00 and 1.00E+00
- Normalized response, dose-response replicates (SI Fig 14) ([4]; Log[inhibitor] (M) -7.409, listed as MAT334 (29)): 9.75E-01 and 1.05E+00 and 9.17E-01
- Normalized response, dose-response replicates (SI Fig 14) ([4]; Log[inhibitor] (M) -7.710, listed as MAT334 (29)): 9.99E-01 and 1.04E+00 and 9.29E-01
- Normalized response, dose-response replicates (SI Fig 14) ([4]; Log[inhibitor] (M) -8.000, listed as MAT334 (29)): 9.48E-01 and 9.82E-01 and 1.03E+00
- Normalized response, dose-response replicates (SI Fig 14) ([4]; Log[inhibitor] (M) -8.301, listed as MAT334 (29)): 1.01E+00 and 1.09E+00 and 9.01E-01
- Normalized response, dose-response replicates (SI Fig 14) ([4]; Log[inhibitor] (M) -8.602, listed as MAT334 (29)): 8.97E-01 (2×) and 1.09E+00
- Normalized response, dose-response replicates (SI Fig 14) ([4]; Log[inhibitor] (M) -9.000, listed as MAT334 (29)): 9.02E-01 and 9.67E-01 and 1.03E+00
- Normalized response, dose-response replicates (SI Fig 14) ([4]; Log[inhibitor] (M) -9.301, listed as MAT334 (29)): 8.06E-01 and 9.62E-01 and 9.06E-01
- PfcProRS -- best Kd ([4]; SI Fig 16a, values on -log scale): 6.180
- Kd [5, 6]: 2130 nM
- Kd [5, 7]: 2110 nM
